Among the data in PubChem BioAssay (NCI) are TGI values, retold here.

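These data come from cells grown in 96-well plates and exposed to compound for 48 hours at five concentrations. Definition used: TGI = concentration required for complete inhibition of growth.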

Some test systems named below: NCI-H460 lung; RPMI-8226 leukemia; SNB-19 CNS; KM12 colon; NCI-H226 lung; SF-539 CNS; HCT-116 colon; EKVX NSCLC; SK-MEL-28 melanoma; SNB-75 CNS.
Common to all, as to test: NCI tumour cell line growth inhibition, 48 h

`COc1ccc(C2C3CCc4ccccc4C3=NN2S(=O)(=O)c2ccc(/C=C/C(=O)O)cc2)cc1` (configuration not stated): the TGI is 96.5 µM with NCI-H460 lung; 16 µM with RPMI-8226 leukemia; over 100 µM with SNB-19 CNS; 43.4 µM in the test with KM12 colon; 74.7 µM in the test on NCI-H226 lung; 6.29 µM in the test with SF-539 CNS. Also, the TGI with HCT-116 colon was 38.2 µM; in the test on EKVX NSCLC, over 100 µM.

Turning to `O=c1cn[nH]c(=S)n1/N=C/c1c[nH]c2ccccc12`, the TGI in the test with SK-MEL-28 melanoma, with NCI-H460 lung, in the test with RPMI-8226 leukemia, in the test on SNB-19 CNS, with KM12 colon and with SF-539 CNS was over 100 µM in each case. Besides, the TGI with HCT-116 colon and in the test with EKVX NSCLC was over 100 µM each time.

With `O=C(O)CCCc1ccc2ccccc2c1`, the TGI with SK-MEL-28 melanoma, in the test with NCI-H460 lung, with RPMI-8226 leukemia, in the test on SNB-19 CNS, in the test with KM12 colon and in the test on SF-539 CNS was over 100 µM in each case. For the same molecule, the TGI in the test on HCT-116 colon and in the test on EKVX NSCLC was over 100 µM in each case.

For `CSc1ncc2c(n1)sc1c(=O)n(-c3ccccc3)cnc12`, the TGI in the test with SK-MEL-28 melanoma, in the test with NCI-H460 lung, with RPMI-8226 leukemia, in the test with SNB-19 CNS, in the test with KM12 colon and in the test with SNB-75 CNS was over 100 µM in each case. In addition, the TGI in the test on NCI-H226 lung and in the test with HCT-116 colon was over 100 µM in each case.

Consider `COc1cc2c(cc1OCCCCOc1cc3c(cc1OC)C(=O)N1CCC[C@H]1C(=O)N3)N=C[C@@H]1CCCN1C2=O`, for which the TGI in the test on SK-MEL-28 melanoma was found to be 30.8 µM; in the test on NCI-H460 lung, 43.9 µM; in the test with RPMI-8226 leukemia, 3.66 µM; in the test on SNB-19 CNS it was 20.5 µM; with KM12 colon, 22.2 µM; in the test on SNB-75 CNS, 18.1 µM. For the same molecule, the TGI in the test with NCI-H226 lung was 26.7 µM; in the test with HCT-116 colon it was over 100 µM; with EKVX NSCLC it was 27.6 µM.

For the molecule `O=C1CSC(c2c[nH]c3ccccc23)N1c1ccccc1[N+](=O)[O-]` (configuration not stated), the TGI with SK-MEL-28 melanoma, in the test on NCI-H460 lung, with RPMI-8226 leukemia, in the test with SNB-19 CNS, in the test with KM12 colon and in the test on SF-539 CNS was over 100 µM each time. For the same molecule, the TGI in the test on HCT-116 colon and with EKVX NSCLC was over 100 µM throughout.

Take `COc1ccccc1/C=C1\NC(=S)N(/C=C2\C(=O)Oc3ccccc3C2=O)C1=O`: the TGI in the test with SK-MEL-28 melanoma, in the test on NCI-H460 lung, with SNB-19 CNS, in the test with KM12 colon, with SNB-75 CNS and with NCI-H226 lung was over 100 µM in each case. For the same molecule, the TGI in the test with SF-539 CNS was 96.7 µM; with HCT-116 colon, over 100 µM; in the test with EKVX NSCLC, over 100 µM.

As to `Cc1ccc(S(=O)c2sccc2C=O)cc1` (configuration not stated), the TGI in the test on SK-MEL-28 melanoma was 92.4 µM; in the test on NCI-H460 lung, 50.4 µM; in the test with RPMI-8226 leukemia, 76.2 µM; with SNB-19 CNS, over 100 µM; with KM12 colon, 70.3 µM; in the test on SNB-75 CNS it was 94.9 µM. In addition, the TGI was 41.7 µM in the test on SF-539 CNS, 31 µM in the test with HCT-116 colon and over 100 µM with EKVX NSCLC.

Turning to `CCOC(=O)c1[nH]cc(C)c1-c1ccc2c(-c3ccccc3)nc3ccccc3n12`, the TGI with SK-MEL-28 melanoma was found to be 14.3 µM; in the test on NCI-H460 lung it was 12 µM; in the test on KM12 colon, 13.3 µM; in the test on SNB-75 CNS, 5.87 µM; with NCI-H226 lung it was 20.1 µM; with SF-539 CNS it was 9.04 µM. In addition, the values for the TGI in the test with HCT-116 colon and in the test with EKVX NSCLC were 12.5 µM and 18.2 µM, respectively.

Consider `CC(C)(CCCCC(C)(C)[N+](C)(C)C)[N+](C)(C)C`, for which the TGI with SK-MEL-28 melanoma, in the test with NCI-H460 lung, with RPMI-8226 leukemia, in the test on SNB-19 CNS, in the test with SNB-75 CNS and in the test with SF-539 CNS was over 100 µM each time. For the same molecule, the TGI in the test on HCT-116 colon and in the test with EKVX NSCLC was over 100 µM in each case.

In the case of `Cc1nnc(N)nc1/C=C/c1c(O)ccc2ccccc12`, the TGI is over 100 µM in the test with SK-MEL-28 melanoma; 71.2 µM with NCI-H460 lung; over 100 µM with RPMI-8226 leukemia; over 100 µM in the test with SNB-19 CNS; over 100 µM with KM12 colon; 44.5 µM in the test on NCI-H226 lung. Also, the TGI was over 100 µM in the test with HCT-116 colon and 36 µM in the test on EKVX NSCLC.

Regarding `Fc1ccc(-c2sc(-c3cccs3)cc2Cc2cccs2)cc1`, the TGI in the test on SK-MEL-28 melanoma, in the test on NCI-H460 lung, in the test with SNB-19 CNS, in the test with KM12 colon, with SNB-75 CNS and in the test on NCI-H226 lung was over 100 µM in each case. The TGI in the test with SF-539 CNS, in the test on HCT-116 colon and with EKVX NSCLC was over 100 µM in each case.

As for `C1CC[C@H]2SSC3CCCC[C@H]3SSC2C1` (some centres not stated), the TGI with SK-MEL-28 melanoma, in the test on NCI-H460 lung, in the test with RPMI-8226 leukemia, with SNB-19 CNS, in the test with KM12 colon and with SNB-75 CNS was over 100 µM throughout. In addition, the TGI with SF-539 CNS, in the test on HCT-116 colon and in the test on EKVX NSCLC was over 100 µM each time.

Consider `C/C(=N\Nc1nc2cccnc2s1)c1ccccn1`, for which the TGI in the test with SK-MEL-28 melanoma was over 100 µM; in the test on NCI-H460 lung, over 100 µM; with RPMI-8226 leukemia it was over 100 µM; in the test with SNB-19 CNS, over 87 µM; with KM12 colon, over 33.6 µM; in the test on SNB-75 CNS it was 6.06 µM. Moreover, the TGI is 20.6 µM with SF-539 CNS, over 32.2 µM in the test on HCT-116 colon and 5.73 µM with EKVX NSCLC.

For `CSc1ccc(/C=C2\N=C(c3ccccc3)N(c3nc4cc(C)c(C)cc4s3)C2=O)cc1`, the TGI is over 100 µM with SK-MEL-28 melanoma; over 100 µM in the test on NCI-H460 lung; over 100 µM in the test with RPMI-8226 leukemia; 83.9 µM with SNB-19 CNS; over 100 µM with KM12 colon; 55.2 µM with SNB-75 CNS. For the same molecule, the values for the TGI in the test with SF-539 CNS, in the test on HCT-116 colon and with EKVX NSCLC were 40.9 µM, 44.5 µM and 85.9 µM, respectively.
